Laboratory results from PubChem BioAssay (NCI).
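Compound exposure: 48 hours, 5 concentrations, 96-well plates. GI50 is the concentration that inhibits growth by half. The concentration for full growth arrest is given as TGI.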

How the values were obtained:
Assay in all cases: NCI-60 cell line screen, 48 h
[1] = tested on: HCT-15 colon
[2] = tested on: A549 NSCLC
[3] = tested on: K-562 leukemia
[4] = tested on: UACC-62 melanoma
[5] = tested on: HS 578T breast
[6] = tested on: MDA-MB-231 breast
[7] = tested on: OVCAR-5 ovarian
[8] = tested on: RPMI-8226 leukemia
[9] = tested on: M14 melanoma
[10] = tested on: ACHN renal
[11] = tested on: NCI-H522 lung
[12] = tested on: NCI-H460 lung
[13] = tested on: DU-145 prostate
[14] = tested on: HCC-2998 colon
[15] = tested on: NCI-H226 lung
[16] = tested on: HCT-116 colon
[17] = tested on: MDA-MB-435
[18] = tested on: MOLT-4 leukemia
[19] = tested on: SR leukemia
[20] = tested on: SK-OV-3 ovarian
[21] = tested on: HOP-92 NSCLC
[22] = tested on: TK-10 renal
[23] = tested on: PC-3 prostate
[24] = tested on: EKVX NSCLC
[25] = tested on: A498 renal
[26] = tested on: SNB-19 CNS
[27] = tested on: SN12C renal
[28] = tested on: MALME-3M melanoma
[29] = tested on: BT-549 breast
[30] = tested on: UO-31 renal
[31] = tested on: NCI-H23 lung
[32] = tested on: NCI/ADR-RES ovarian
[33] = tested on: CAKI-1 renal
[34] = tested on: COLO 205 colon
[35] = tested on: HOP-62 NSCLC
[36] = tested on: SF-295 CNS
[37] = tested on: HT29 colon
[38] = tested on: 786-0 renal
[39] = tested on: SK-MEL-2 melanoma
[40] = tested on: SNB-75 CNS
[41] = tested on: T-47D breast
[42] = tested on: OVCAR-8 ovarian
[43] = tested on: SK-MEL-28 melanoma
[44] = tested on: SK-MEL-5 melanoma
[45] = tested on: OVCAR-4 ovarian
[46] = tested on: U251 CNS
[47] = tested on: OVCAR-3 ovarian
[48] = tested on: IGROV1 ovarian
[49] = tested on: MCF7 breast
[50] = tested on: KM12 colon
[51] = tested on: RXF 393 renal
[52] = tested on: SF-539 CNS
[53] = tested on: SF-268 CNS
[54] = tested on: LOX IMVI melanoma
[55] = tested on: SW-620 colon
[56] = tested on: CCRF-CEM leukemia
[57] = tested on: HL-60(TB) leukemia
[58] = tested on: UACC-257 melanoma

SMILES: Nc1nc(N)c2nc(CNc3ccc(C(=O)NC(CC(=O)O)C(=O)O)cc3)cnc2n1 (stereo unspecified)
- GI50 [1]: 0.526 µM
- TGI [1]: > 100 µM
- GI50 [2]: 0.569 µM
- TGI [2]: > 100 µM
- GI50 [3]: 0.0741 µM
- TGI [3]: > 100 µM
- GI50 [4]: 3.09 µM
- TGI [4]: > 100 µM
- GI50 [5]: 59.2 µM
- TGI [5]: > 100 µM
- GI50 [6]: > 100 µM
- TGI [6]: > 100 µM
- GI50 [7]: 16.3 µM
- TGI [7]: > 100 µM
- GI50 [8]: 6.43 µM
- TGI [8]: > 100 µM
- GI50 [9]: 0.556 µM
- TGI [9]: > 100 µM
- GI50 [10]: 2.45 µM
- TGI [10]: > 100 µM
- GI50 [11]: 3.97 µM
- TGI [11]: > 100 µM
- GI50 [12]: 0.354 µM
- TGI [12]: > 100 µM
- GI50 [13]: 0.682 µM
- TGI [13]: > 100 µM
- GI50 [14]: 1.07 µM
- TGI [14]: > 100 µM
- GI50 [15]: 30.6 µM
- TGI [15]: > 100 µM
- GI50 [16]: 0.0773 µM
- TGI [16]: > 100 µM
- GI50 [17]: 0.465 µM
- TGI [17]: > 100 µM
- GI50 [18]: 0.903 µM
- TGI [18]: > 100 µM
- GI50 [19]: 0.267 µM
- TGI [19]: > 100 µM
- GI50 [20]: > 53.5 µM
- TGI [20]: > 100 µM
- GI50 [21]: > 100 µM
- TGI [21]: > 100 µM
- GI50 [22]: 1.71 µM
- TGI [22]: > 100 µM
- GI50 [23]: 0.319 µM
- TGI [23]: > 75.7 µM
- GI50 [24]: 1.57 µM
- TGI [24]: > 100 µM
- GI50 [25]: 13.3 µM
- TGI [25]: > 100 µM
- GI50 [26]: 8.39 µM
- TGI [26]: > 100 µM
- GI50 [27]: 0.922 µM
- TGI [27]: > 100 µM
- GI50 [28]: > 100 µM
- TGI [28]: > 100 µM
- GI50 [29]: 1.03 µM
- TGI [29]: > 100 µM
- GI50 [30]: 1.18 µM
- TGI [30]: > 35.9 µM
- GI50 [31]: 2.38 µM
- TGI [31]: > 100 µM
- GI50 [32]: 0.638 µM
- TGI [32]: > 100 µM
- GI50 [33]: 0.481 µM
- TGI [33]: 12.4 µM
- GI50 [34]: 31 µM
- TGI [34]: > 100 µM
- GI50 [35]: 6.4 µM
- TGI [35]: > 100 µM
- GI50 [36]: 0.508 µM
- TGI [36]: > 34.6 µM
- GI50 [37]: 0.542 µM
- TGI [37]: > 100 µM
- GI50 [38]: 0.372 µM
- TGI [38]: > 100 µM
- GI50 [39]: 0.412 µM
- TGI [39]: > 100 µM
- GI50 [40]: 22.2 µM
- TGI [40]: > 100 µM
- GI50 [41]: > 65.6 µM
- TGI [41]: > 100 µM
- GI50 [42]: 0.589 µM
- TGI [42]: > 100 µM
- GI50 [43]: > 100 µM
- TGI [43]: > 100 µM
- GI50 [44]: 3.33 µM
- TGI [44]: > 100 µM
- GI50 [45]: > 100 µM
- TGI [45]: > 100 µM
- GI50 [46]: 1.97 µM
- TGI [46]: > 100 µM
- GI50 [47]: 0.694 µM
- TGI [47]: > 100 µM
- GI50 [48]: 0.631 µM
- TGI [48]: > 100 µM
- GI50 [49]: 0.631 µM
- TGI [49]: > 100 µM
- GI50 [50]: 0.897 µM
- TGI [50]: > 100 µM
- GI50 [51]: > 72.4 µM
- TGI [51]: > 100 µM
- GI50 [52]: 3.93 µM
- TGI [52]: > 100 µM
- GI50 [53]: 0.528 µM
- TGI [53]: > 100 µM
- GI50 [54]: 0.16 µM
- TGI [54]: > 100 µM
- GI50 [55]: 0.274 µM
- TGI [55]: > 100 µM
- GI50 [56]: 0.422 µM
- TGI [56]: > 100 µM
- GI50 [57]: 0.756 µM
- TGI [57]: > 100 µM
- GI50 [58]: > 33.8 µM
- TGI [58]: > 100 µM
